Measured values from the supplement of paper PMC10627819.

Columns and labels:
Experiment in all cases: fitness (endpoint OD595 vs no drug) (fraction); higher = more growth
B. subtilis 168 = system: B. subtilis 168
How it was run: (§1)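 Bacterial growth was followed in 384-well plates seeded at OD595 0.01, with 30 µl per well, or 55 µl for S. pneumoniae, in TSB, LB Lennox or CY at 37 °C. OD595 was read every 30 min for 14 h, and each reading had the first reading subtracted as background. Fitness is the background-corrected optical density at entry into stationary phase divided by the robust mean of the no-drug control wells. This ratio is capped at 1.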

S. pneumoniae D39V = system: S. pneumoniae D39V
How it was run: as §1

S. aureus Newman = system: S. aureus Newman
How it was run: as §1

[1] = first compound 1 µg/mL, partner 2 µg/mL
[2] = first compound 1 µg/mL, partner 8 µg/mL
[3] = first compound 2 µg/mL, partner 2 µg/mL
[4] = first compound 2 µg/mL, partner 8 µg/mL
[5] = first compound 4 µg/mL, partner 2 µg/mL
[6] = first compound 4 µg/mL, partner 4 µg/mL
[7] = first compound 4 µg/mL, partner 8 µg/mL

Work on `O=C(O)[C@H]1/C(=C/CO)O[C@@H]2CC(=O)N21` [Clavulanic acid] + O=C(O[C@@H]1Cc2c(O)cc(O)cc2O[C@@H]1c1cc(O)c(O)c(O)c1)c1cc(O)c(O)c(O)c1 [EGCG] yielded a fitness (B. subtilis 168; first compound 1.5 µg/mL, partner 6.25 µg/mL) of 0.884, a fitness (B. subtilis 168; first compound 3 µg/mL, partner 6.25 µg/mL) of 0.835 and a fitness (B. subtilis 168; first compound 6 µg/mL, partner 6.25 µg/mL) of 0.715. It also gave a fitness (B. subtilis 168; first compound 6 µg/mL, partner 25 µg/mL) of 0.272, a fitness (S. pneumoniae D39V; first compound 0.5 µg/mL, partner 12.5 µg/mL) of 0.958 and a fitness (S. pneumoniae D39V; first compound 0.5 µg/mL, partner 25 µg/mL) of 0.96. It also gave a fitness (S. pneumoniae D39V; first compound 0.5 µg/mL, partner 50 µg/mL) of 0.939, a fitness (S. pneumoniae D39V; first compound 1 µg/mL, partner 12.5 µg/mL) of 0.889 and a fitness (S. pneumoniae D39V; first compound 1 µg/mL, partner 25 µg/mL) of 0.931. It also gave a fitness (S. pneumoniae D39V; first compound 1 µg/mL, partner 50 µg/mL) of 0.93, a fitness (S. pneumoniae D39V; first compound 2 µg/mL, partner 12.5 µg/mL) of 0.817 and a fitness (S. pneumoniae D39V; first compound 2 µg/mL, partner 25 µg/mL) of 0.829. It also gave a fitness (S. pneumoniae D39V; first compound 2 µg/mL, partner 50 µg/mL) of 0.816, a fitness (S. aureus Newman; first compound 0.03125 µg/mL, partner 12.5 µg/mL, one replicate) of 0.846 and a fitness (S. aureus Newman; first compound 0.03125 µg/mL, partner 25 µg/mL, one replicate) of 0.821. The fitness (S. aureus Newman; first compound 0.03125 µg/mL, partner 50 µg/mL, one replicate) was 0.75, the fitness (S. aureus Newman; first compound 0.0625 µg/mL, partner 12.5 µg/mL, one replicate) was 0.892 and the fitness (S. aureus Newman; first compound 0.0625 µg/mL, partner 25 µg/mL, one replicate) was 0.874. The fitness (S. aureus Newman; first compound 0.0625 µg/mL, partner 50 µg/mL, one replicate) was 0.733, the fitness (S. aureus Newman; first compound 0.125 µg/mL, partner 12.5 µg/mL, one replicate) was 0.824 and the fitness (S. aureus Newman; first compound 0.125 µg/mL, partner 25 µg/mL, one replicate) was 0.812. It also gave a fitness (S. aureus Newman; first compound 0.125 µg/mL, partner 50 µg/mL, one replicate) of 0.73.

With `CNC(C)C1CCC(N)C(OC2C(N)CC(N)C(OC3OCC(C)(O)C(NC)C3O)C2O)O1` (stereo not given) [Gentamicin] + CC1=C(C(=O)O)N2C(=O)[C@@H](NC(=O)[C@H](N)c3ccccc3)[C@H]2SC1 [Cephalexin] the fitness (B. subtilis 168; first compound 0.0625 µg/mL, partner 0.125 µg/mL, main component drawn) was 0.852, the fitness (B. subtilis 168; first compound 0.0625 µg/mL, partner 0.25 µg/mL, main component drawn) was 0.938 and the fitness (B. subtilis 168; first compound 0.0625 µg/mL, partner 0.5 µg/mL, main component drawn) was 0.882. For the same compound, the fitness (B. subtilis 168; first compound 0.0625 µg/mL, partner 1 µg/mL, one replicate, main component drawn) was 0.986, the fitness (B. subtilis 168; first compound 0.125 µg/mL, partner 0.125 µg/mL, main component drawn) was 0.0869 and the fitness (B. subtilis 168; first compound 0.125 µg/mL, partner 1 µg/mL, one replicate, main component drawn) was 0.941. For the same compound, the fitness (B. subtilis 168; first compound 0.25 µg/mL, partner 0.125 µg/mL, main component drawn) was 0.0552, the fitness (B. subtilis 168; first compound 0.25 µg/mL, partner 0.25 µg/mL, main component drawn) was 0.0555 and the fitness (B. subtilis 168; first compound 0.25 µg/mL, partner 0.5 µg/mL, main component drawn) was 0.0535. The fitness (B. subtilis 168; first compound 0.25 µg/mL, partner 1 µg/mL, one replicate, main component drawn) was 0.418, the fitness (S. pneumoniae D39V; first compound 2 µg/mL, partner 0.125 µg/mL, one replicate, main component drawn) was 0.962 and the fitness (S. pneumoniae D39V; first compound 2 µg/mL, partner 0.25 µg/mL, one replicate, main component drawn) was 0.96. The fitness (S. pneumoniae D39V; first compound 2 µg/mL, partner 0.5 µg/mL, one replicate, main component drawn) was 0.947, the fitness (S. pneumoniae D39V; first compound 2 µg/mL, partner 2 µg/mL, main component drawn) was 0.0158 and the fitness (S. pneumoniae D39V; first compound 2 µg/mL, partner 4 µg/mL, main component drawn) was 0.0234. For the same compound, the fitness (S. pneumoniae D39V; first compound 4 µg/mL, partner 0.125 µg/mL, one replicate, main component drawn) was 0.993, the fitness (S. pneumoniae D39V; first compound 4 µg/mL, partner 0.25 µg/mL, one replicate, main component drawn) was 0.955 and the fitness (S. pneumoniae D39V; first compound 4 µg/mL, partner 0.5 µg/mL, one replicate, main component drawn) was ≥ 1. It also gave a fitness (S. pneumoniae D39V; first compound 4 µg/mL, partner 1 µg/mL, main component drawn) of 0.424, a fitness (S. pneumoniae D39V; first compound 4 µg/mL, partner 2 µg/mL, main component drawn) of 0.0331 and a fitness (S. pneumoniae D39V; first compound 4 µg/mL, partner 4 µg/mL, main component drawn) of 0.026. It also gave a fitness (S. pneumoniae D39V; first compound 8 µg/mL, partner 0.125 µg/mL, one replicate, main component drawn) of 0.93, a fitness (S. pneumoniae D39V; first compound 8 µg/mL, partner 0.25 µg/mL, one replicate, main component drawn) of 0.965 and a fitness (S. pneumoniae D39V; first compound 8 µg/mL, partner 0.5 µg/mL, one replicate, main component drawn) of 0.956. It also gave a fitness (S. pneumoniae D39V; first compound 8 µg/mL, partner 1 µg/mL, main component drawn) of 0.401, a fitness (S. pneumoniae D39V; first compound 8 µg/mL, partner 2 µg/mL, main component drawn) of 0.0415 and a fitness (S. pneumoniae D39V; first compound 8 µg/mL, partner 4 µg/mL, main component drawn) of 0.0404. For the same compound, the fitness (S. aureus Newman; first compound 0.375 µg/mL, partner 0.25 µg/mL, one replicate, main component drawn) was ≥ 1, the fitness (S. aureus Newman; first compound 0.375 µg/mL, partner 0.5 µg/mL, one replicate, main component drawn) was ≥ 1 and the fitness (S. aureus Newman; first compound 0.375 µg/mL, partner 1 µg/mL, one replicate, main component drawn) was ≥ 1. For the same compound, the fitness (S. aureus Newman; first compound 0.5 µg/mL, partner 0.25 µg/mL, main component drawn) was 0.968, the fitness (S. aureus Newman; first compound 0.5 µg/mL, partner 0.5 µg/mL, main component drawn) was 0.964 and the fitness (S. aureus Newman; first compound 0.5 µg/mL, partner 1 µg/mL, main component drawn) was 0.922. For the same compound, the fitness (S. aureus Newman; first compound 0.75 µg/mL, partner 0.25 µg/mL, one replicate, main component drawn) was ≥ 1, the fitness (S. aureus Newman; first compound 0.75 µg/mL, partner 0.5 µg/mL, one replicate, main component drawn) was ≥ 1 and the fitness (S. aureus Newman; first compound 0.75 µg/mL, partner 1 µg/mL, one replicate, main component drawn) was ≥ 1. The fitness (S. aureus Newman; first compound 1 µg/mL, partner 0.25 µg/mL, main component drawn) was ≥ 1, the fitness (S. aureus Newman; first compound 1 µg/mL, partner 0.5 µg/mL, main component drawn) was 0.986 and the fitness (S. aureus Newman; first compound 1 µg/mL, partner 1 µg/mL, main component drawn) was ≥ 1. It also gave a fitness (S. aureus Newman; first compound 1.5 µg/mL, partner 0.25 µg/mL, one replicate, main component drawn) of 0.986, a fitness (S. aureus Newman; first compound 1.5 µg/mL, partner 0.5 µg/mL, one replicate, main component drawn) of 0.877 and a fitness (S. aureus Newman; first compound 1.5 µg/mL, partner 1 µg/mL, one replicate, main component drawn) of 0.963. The fitness (S. aureus Newman; first compound 2 µg/mL, partner 0.25 µg/mL, main component drawn) was 0.993, the fitness (S. aureus Newman; first compound 2 µg/mL, partner 0.5 µg/mL, main component drawn) was ≥ 1 and the fitness (S. aureus Newman; first compound 2 µg/mL, partner 1 µg/mL, main component drawn) was ≥ 1.

`Cc1cc(NS(=O)(=O)c2ccc(N)cc2)no1` [Sulfamethoxazol] + CN[C@@H]1[C@H](O[C@H]2[C@H](O[C@H]3[C@H](O)[C@@H](O)[C@H](N=C(N)N)[C@@H](O)[C@@H]3N=C(N)N)O[C@@H](C)[C@]2(O)C=O)O[C@@H](CO)[C@H](O)[C@H]1O [Streptomycin] was tested, and the fitness (B. subtilis 168; first compound 0.5 µg/mL, partner 2 µg/mL, one replicate) was ≥ 1, the fitness (B. subtilis 168; first compound 0.5 µg/mL, partner 4 µg/mL, one replicate) was ≥ 1 and the fitness (B. subtilis 168; first compound 0.5 µg/mL, partner 8 µg/mL, one replicate) was 0.0922. It also gave a fitness (B. subtilis 168; [1]) of 0.903, a fitness (B. subtilis 168; [2]) of 0.045 and a fitness (B. subtilis 168; [3]) of 0.9. It also gave a fitness (B. subtilis 168; [4]) of 0.0312, a fitness (B. subtilis 168; [5]) of 0.888 and a fitness (B. subtilis 168; [6]) of 0.153. It also gave a fitness (B. subtilis 168; [7]) of 0.0185, a fitness (S. pneumoniae D39V; [1]) of 0.962 and a fitness (S. pneumoniae D39V; first compound 1 µg/mL, partner 4 µg/mL) of 0.932. For the same compound, the fitness (S. pneumoniae D39V; [2]) was 0.877, the fitness (S. pneumoniae D39V; first compound 1 µg/mL, partner 16 µg/mL, one replicate) was 0.763 and the fitness (S. pneumoniae D39V; [3]) was 0.962. For the same compound, the fitness (S. pneumoniae D39V; first compound 2 µg/mL, partner 4 µg/mL) was 0.932, the fitness (S. pneumoniae D39V; [4]) was 0.908 and the fitness (S. pneumoniae D39V; first compound 2 µg/mL, partner 16 µg/mL, one replicate) was 0.78. It also gave a fitness (S. pneumoniae D39V; [5]) of 0.932, a fitness (S. pneumoniae D39V; [6]) of 0.944 and a fitness (S. pneumoniae D39V; [7]) of 0.95. It also gave a fitness (S. pneumoniae D39V; first compound 4 µg/mL, partner 16 µg/mL, one replicate) of 0.79, a fitness (S. aureus Newman; first compound 1 µg/mL, partner 1 µg/mL) of 0.98 and a fitness (S. aureus Newman; [1]) of 0.968. It also gave a fitness (S. aureus Newman; first compound 2 µg/mL, partner 1 µg/mL) of 0.939, a fitness (S. aureus Newman; [3]) of 0.999 and a fitness (S. aureus Newman; first compound 2 µg/mL, partner 8 µg/mL, one replicate) of 0.913. It also gave a fitness (S. aureus Newman; first compound 4 µg/mL, partner 1 µg/mL) of 0.956, a fitness (S. aureus Newman; [5]) of 0.93 and a fitness (S. aureus Newman; first compound 4 µg/mL, partner 8 µg/mL, one replicate) of 0.876. For the same compound, the fitness (S. aureus Newman; first compound 8 µg/mL, partner 2 µg/mL, one replicate) was 0.973, the fitness (S. aureus Newman; first compound 8 µg/mL, partner 4 µg/mL, one replicate) was 0.964 and the fitness (S. aureus Newman; first compound 8 µg/mL, partner 8 µg/mL, one replicate) was 0.897.
